Data taken from the NIST ThermoML archive (doi:10.1021/acs.jced.8b00693).
± gives the expanded uncertainty stated by the source.

How the values were obtained:
[1] = wn = mass fraction of the nth substance listed; settings: 298.15 K, 100 kPa, Liquid, Pycnometric method
[2] = refractive index (Na D-line) (dimensionless); wn = mass fraction of the nth substance listed; settings: 298.15 K, 100 kPa, Liquid, Standard Abbe refractometry

Compound `O=S(=O)([O-])[O-].[Rb+].[Rb+]` [rubidium sulfate] + O has a mass density ([1]; w1 = 0.3365) of 1363.1 ± 24 kg/m3 and a refractive index ([2]; w1 = 0.3365) of 1.3649 ± 0.002.

`O=S(=O)([O-])[O-].[Na+].[Na+]` [sodium sulfate] + O showed a mass density ([1]; w1 = 0.218) of 1183 ± 24 kg/m3 and a refractive index ([2]; w1 = 0.218) of 1.3628 ± 0.002.

In the case of `O=S(=O)([O-])[O-].[Cs+].[Cs+]` [cesium sulfate] + O, the mass density ([1]; w1 = 0.6463) is reported as 2009.2 ± 24 kg/m3 and the refractive index ([2]; w1 = 0.6463) is reported as 1.4095 ± 0.002.
